This note sets out measurements from paper PMC9979163, “Discovery and functional characterization of N-(thiazol-2-yl)-benzamide analogs as the first class of selective antagonists of the Zinc-Activated Channel (ZAC)” (Biochemical pharmacology, 2021).

The target of assay [1] is T1, ZAC (Homo sapiens, UniProt Q401N2).
T1 sequence (Q401N2 26-412): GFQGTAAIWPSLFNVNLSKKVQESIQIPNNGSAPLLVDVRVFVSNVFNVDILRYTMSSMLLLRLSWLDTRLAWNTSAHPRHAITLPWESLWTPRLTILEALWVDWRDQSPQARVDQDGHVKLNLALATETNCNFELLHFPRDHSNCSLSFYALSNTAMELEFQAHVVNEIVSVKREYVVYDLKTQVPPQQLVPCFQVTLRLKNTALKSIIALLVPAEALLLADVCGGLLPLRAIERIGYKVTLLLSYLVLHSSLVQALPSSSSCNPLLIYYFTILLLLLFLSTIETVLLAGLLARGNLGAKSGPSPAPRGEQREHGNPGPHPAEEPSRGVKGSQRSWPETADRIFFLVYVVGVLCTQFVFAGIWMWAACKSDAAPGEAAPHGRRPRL
Kind of assay: TEVC recordings, Zn2+-evoked currents at ZAC expressed in Xenopus oocytes. The conditions noted are these: for Antagonist activity at ZAC in SAR study (in words): tested at three concentrations (0.3-3-30 μM or 1-10-100 μM); for IC50: steady-state current, read-out: pIC50 ± S.E.M. (converted). It counts as cell-based. The method, then: (§1) The cDNAs for the various WT and chimeric CLR subunits were linearized and subsequently transcribed and capped mMessage mMachine T7 RNA transcription kit (Ambion, Waltham, MA). Different amounts of cRNA mixtures were injected for ZAC (9.2–36.8 nL in a concentration of 0.05 μg/μL), […] nAChR (9.2–36.8 nL in a concentration of 0.1 μg/μL of each subunit in a ratio of 1:1), hα1 GlyR (9.2–36.8 nL in a concentration of 0.05 μg/μL), hα1β2γ2s GABAAR (9.2–36.8 nL in a concentration of 0.05 μg/μL of each subunit in a ratio of 1:1:3), m5-HT3AR (9.2–36.8 nL in a concentration of 0.05 μg/μL), m5-HT3A/ZAC (9.2–36.8 nL in a concentration of 0.207 μg/μL), and ZAC/hai-Gly (9.2–36.8 nL in a concentration of 0.206 μg/μL). Oocytes were incubated in a sterile modified Barth’s solution [88 mM NaCl, 1 mM KCl, 15 mM HEPES (pH 7.5), 2.4 mM NaHCO3, 0.41 mM CaCl2, 0.82 mM MgSO4, 0.3 mM Ca(NO3)2, 100 U/ml penicillin and 100 μg/ml strep-tomycin] at 18 °C for 2 days after injection.
(§2) On the day of experiment, all compound dilutions were prepared in a saline solution [115 mM NaCl, 2.5 mM KCl, 10 mM MOPS (pH 7.5), 1.8 mM CaCl2, 0.1 mM MgCl2] and pH adjusted to 7.5 (if needed). Oocytes were placed in a recording chamber continuously perfused with this saline solution, and the compounds were applied in the perfusate. Both voltage and current electrodes were agar-plugged with 3 M KCl with a resistance of 0.2–2.0 MΩ. Oocytes were voltage-clamped at −50 mV (unless otherwise stated) by a Gene Clamp 500B amplifier (Axon Instruments, Union City, CA), while current signals were digitized by a Digidata 1320. Currents were recorded using pCLAMP 10 (Molecular Devices, Sunnyvale, CA). The recordings were performed at room temperature.
In all recordings, the compounds or compound combinations were applied in the bath until the peak current decayed to a steady state (up to 30 sec at the most). […] The functional properties of the modulators at the CLRs were determined by pre-application of the modulator to the perfusate 30 sec and followed by co-application of the modulator and the agonist to the perfusate. In all recordings, washes of 1–5 min were executed between the applications to prevent receptor desensitization, the duration of these washes depending on the kinetics of the respective receptors and the “stickyness” of the respective compounds. […] For the selectivity and mode-of-action studies, the agonist concentrations used for different CLRs or chimeric CLRs were in the EC20–EC40 range (verified on the day of experiment), as this enabled us to investigate both for putative positive and negative receptor modulation exerted by TTFB (hα3β4 nAChR, 3 μM (S)-nicotine; m5-HT3AR, 2 μM 5-HT; hα1 GlyR, 100 μM glycine; hα1β2γ2S GABAAR, 30 μM GABA; m5-HT3A/ZAC, 0.3 μM 5-HT; ZAC/hɑ1-Gly, 2 μM Zn^2+).
Data analysis of the results from the TEVC recordings were performed using Clampfit software version 10.5 (Molecular Devices, Crawley, UK) and GraphPad Prism version 7.0c (GraphPad Software, Inc. La Jolla, CA). Data for the test compounds were normalized to either the maximal agonist-evoked current or to an EC20–EC50-mediated response elicited by the agonist on each oocyte (specified in each case). Unless otherwise stated, data for agonist-induced responses in the presence of the antagonists were extracted from the plateau (or steady-state) of the agonist-evoked current. Concentration-response and concentration-inhibition curves were fitted in GraphPad Prism by nonlinear regression using the equation for sigmoidal dose-response with variable slope. I-V relationships were analyzed by fitting the curves with a third order polynomial model. Each data point represents the mean ± S.E.M. value of recordings performed on at least five oocytes from at least two different batches.

The target in assay [2] is T1, ZAC. In words: TEVC recordings, spontaneous ZAC activity in Xenopus oocytes. The format is cell-based. Conditions: for IC50: block of spontaneous ZAC activity (leak current), TEVC. The method, then:
as §1, §2
In all recordings, the compounds or compound combinations were applied in the bath until the peak current decayed to a steady state (up to 30 sec at the most). […] The functional properties of the modulators at the CLRs were determined by pre-application of the modulator to the perfusate 30 sec and followed by co-application of the modulator and the agonist to the perfusate. In all recordings, washes of 1–5 min were executed between the applications to prevent receptor desensitization, the duration of these washes depending on the kinetics of the respective receptors and the “stickyness” of the respective compounds. […]
(§3) Data analysis of the results from the TEVC recordings were performed using Clampfit software version 10.5 (Molecular Devices, Crawley, UK) and GraphPad Prism version 7.0c (GraphPad Software, Inc. La Jolla, CA). […] I-V relationships were analyzed by fitting the curves with a third order polynomial model. […]

Another assay addresses hα1β2γ2s GABAAR (Homo sapiens, UniProt P14867+P18507+P47870). In words: TEVC selectivity, hα1β2γ2s GABAAR in oocytes. The format is cell-based. The conditions noted are these: 30 μM, 30 s preapplication, 30 μM GABA (EC20–EC40). How it is done:
(§4) The cDNAs for the various WT and chimeric CLR subunits were linearized and subsequently transcribed and capped mMessage mMachine T7 RNA transcription kit (Ambion, Waltham, MA). […]
(§5) On the day of experiment, all compound dilutions were prepared in a saline solution [115 mM NaCl, 2.5 mM KCl, 10 mM MOPS (pH 7.5), 1.8 mM CaCl2, 0.1 mM MgCl2] and pH adjusted to 7.5 (if needed). […] Currents were recorded using pCLAMP 10 (Molecular Devices, Sunnyvale, CA). […]
(§6) In all recordings, the compounds or compound combinations were applied in the bath until the peak current decayed to a steady state (up to 30 sec at the most). […] The functional properties of the modulators at the CLRs were determined by pre-application of the modulator to the perfusate 30 sec and followed by co-application of the modulator and the agonist to the perfusate. […]
as §3

Another assay concerns ZAC/hα1-Gly. In words: TEVC, chimeric ZAC/hα1-Gly receptor in oocytes. The format is cell-based, human. The conditions noted are these: 30 μM, EC20–EC40 Zn2+. The method, then: as §4, §5, §6, §3

Structures are written as SMILES.

Chain of hα1β2γ2s GABAAR (P14867 28-456): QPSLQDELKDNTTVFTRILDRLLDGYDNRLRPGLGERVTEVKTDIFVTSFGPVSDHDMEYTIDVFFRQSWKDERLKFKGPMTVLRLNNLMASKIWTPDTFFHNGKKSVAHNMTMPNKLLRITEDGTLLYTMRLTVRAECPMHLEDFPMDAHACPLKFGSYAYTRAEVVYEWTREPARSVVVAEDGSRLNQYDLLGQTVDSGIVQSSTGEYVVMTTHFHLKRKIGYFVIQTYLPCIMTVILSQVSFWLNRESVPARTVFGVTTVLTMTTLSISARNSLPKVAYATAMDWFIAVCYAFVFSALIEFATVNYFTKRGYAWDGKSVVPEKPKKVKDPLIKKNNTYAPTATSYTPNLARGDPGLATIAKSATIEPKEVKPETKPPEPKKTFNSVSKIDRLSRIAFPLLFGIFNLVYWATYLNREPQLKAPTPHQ
Chain of hα1β2γ2s GABAAR (P47870 25-512 limits assumed): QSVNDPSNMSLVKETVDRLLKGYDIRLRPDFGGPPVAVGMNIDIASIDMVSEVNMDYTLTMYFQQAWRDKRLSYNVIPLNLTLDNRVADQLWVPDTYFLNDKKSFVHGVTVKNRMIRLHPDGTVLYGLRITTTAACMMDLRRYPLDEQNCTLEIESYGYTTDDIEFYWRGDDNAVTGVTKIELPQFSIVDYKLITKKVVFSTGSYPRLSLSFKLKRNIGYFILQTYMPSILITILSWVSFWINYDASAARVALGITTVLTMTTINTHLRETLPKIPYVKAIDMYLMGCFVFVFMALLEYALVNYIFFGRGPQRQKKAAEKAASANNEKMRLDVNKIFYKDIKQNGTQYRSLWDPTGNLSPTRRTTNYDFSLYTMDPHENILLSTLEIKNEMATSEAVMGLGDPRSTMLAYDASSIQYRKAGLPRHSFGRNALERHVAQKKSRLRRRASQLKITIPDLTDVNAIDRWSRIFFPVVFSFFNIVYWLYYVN
Chain of hα1β2γ2s GABAAR (P18507 40-467 isoform P18507-1 limits assumed): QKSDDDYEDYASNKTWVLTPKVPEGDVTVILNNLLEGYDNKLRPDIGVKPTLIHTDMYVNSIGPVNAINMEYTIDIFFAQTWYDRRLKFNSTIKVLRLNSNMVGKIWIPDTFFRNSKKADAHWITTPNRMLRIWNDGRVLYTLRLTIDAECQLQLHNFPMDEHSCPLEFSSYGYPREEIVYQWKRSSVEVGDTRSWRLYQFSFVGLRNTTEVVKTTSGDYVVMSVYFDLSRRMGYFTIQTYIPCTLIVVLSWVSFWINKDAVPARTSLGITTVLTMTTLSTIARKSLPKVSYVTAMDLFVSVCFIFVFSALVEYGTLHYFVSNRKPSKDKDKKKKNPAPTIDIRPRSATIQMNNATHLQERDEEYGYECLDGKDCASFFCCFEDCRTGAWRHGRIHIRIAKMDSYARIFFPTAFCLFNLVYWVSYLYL

As to `CC(C)(C)c1csc(NC(=O)c2cccc(F)c2)n1` [5a, N-(4-(tert-butyl)thiazol-2-yl)-3-fluorobenzamide], on ZAC [1] (10 μM compound, 1 mM Zn2+ as agonist), the “Inhibition of ZAC at 10 μM (in words)” value is “almost complete inhibition”. For the same compound, the “Antagonist activity at ZAC in SAR study (in words)” value at ZAC [1] (1 mM Zn2+ as agonist) is recorded as “roughly equipotent with 2b”. Besides, on ZAC [1] (Zn2+ (1 mM) as agonist, TEVC), the “Fitted inhibition range, Inhibition (%)” value was 91 ± 3%; the “Hill coefficient nH ± S.E.M.” value is −1.5 ± 0.08; the IC50 is 3.02 µM. For the same compound, the “Extent of inhibition of Zn2+-induced responses (in words)” value on ZAC [1] (Zn2+ (1 mM), full concentration-inhibition curves) was “completely”. For the same compound, the Equilibrium potential on ZAC [2] (TTFB (100 μM)-induced currents, holding potentials −60 mV to +60 mV) is −11.5 mV. Further, at ZAC [2] (read-out: IC50), the IC50 came out at 4.7 µM. Moreover, the IC50 at ZAC [2] (read-out: pIC50 ± S.E.M. (converted)) was 4.79 µM. Further, the “Agonist, antagonist or PAM activity” value at hα1β2γ2s GABAAR is “did not display significant activity”. For the same compound, the “Modulation of Zn2+-induced response” value with ZAC/hα1-Gly is given as “negligible effect”.
As for `COC(=O)c1sc(NC(=O)c2cc(Br)ccc2Cl)nc1C` [compound 1, 2-(5-bromo-2-chlorobenzamido)-4-methylthiazole-5-methyl ester], the “Antagonist activity at ZAC in SAR study (in words)” value on ZAC [1] (1 mM Zn2+ as agonist) was “weaker antagonists”. The “Hill coefficient nH ± S.E.M.” value on ZAC [1] (Zn2+ (1 mM) as agonist, TEVC) is reported as −1.3 ± 0.13. Also, the IC50 on ZAC [1] (Zn2+ (1 mM) as agonist, TEVC) is 4.07 µM; on ZAC [2] (read-out: IC50) it was 7.4 µM. In addition, the Mode of antagonism result at ZAC [1] (Zn2+ concentration-response curves in absence and presence of various concentrations of the compound) is on record as “largely non-competitive”.
